Legend:
[1] = tested on: 18Neo (BALB/c 3T3 fibroblast, H-2^d) target cells
T cells = assay: Response to P17 stimulation in a chronically infected chimpanzee; type: cell-based; conditions: one chronically infected chimpanzee
HCV = conditions: chronic HCV liver disease; cited from earlier work

Row | Compound | toxicity that might affect activity in CTL stimulation or utility in vivo [1] | cytotoxicity in response to stimulation (T cells) | patients who respond (HCV) | responders who relapse after treatment is stopped (HCV)
1 | CSCC[C@H](N)C(=O)N[C@@H](CO)C(=O)N[C@@H](Cc1ccc(O)cc1)C(=O)N[C@@H](CO)C(=O)N[C@@H](Cc1c[nH]c2ccccc12)C(=O)N[C@H](C(=O)NCC(=O)N[C@@H](C)C(=O)N[C@@H](CC(C)C)C(=O)N[C@H](C(=O)N[C@H](C(=O)N1CCC[C@H]1C(=O)N[C@@H](CS)C(=O)N[C@@H](C)C(=O)N[C@@H](C)C(=O)N[C@@H](CCC(=O)O)C(=O)O)[C@@H](C)O)C(C)C)[C@@H](C)O [P17, MSYSWTGALVTPCAAE] | did not show any toxicity | not cytotoxicity | – | –
2 | α-interferon | – | – | less than half | approximately 50%
